From patent US7838543B2, “MCH receptor antagonists” (Eli Lilly and Company, priority 2005, dated 2010)
Like-named read-outs stand apart in the source and are kept apart here.

Legend:
[1] = biological target: T1, human MCHR1 (Homo sapiens, UniProt Q99705); test: 125I-MCH competitive binding assay with clone 43 membranes; conditions: Ki from IC50 by Cheng-Prusoff
T1 construct: The full-length cDNA for human MCHR1 was cloned from a human adult brain cDNA library; expressed in transfected cells; host or cells: AV12 cells previously transfected with Galpha15
T1 sequence (Q99705 whole entry): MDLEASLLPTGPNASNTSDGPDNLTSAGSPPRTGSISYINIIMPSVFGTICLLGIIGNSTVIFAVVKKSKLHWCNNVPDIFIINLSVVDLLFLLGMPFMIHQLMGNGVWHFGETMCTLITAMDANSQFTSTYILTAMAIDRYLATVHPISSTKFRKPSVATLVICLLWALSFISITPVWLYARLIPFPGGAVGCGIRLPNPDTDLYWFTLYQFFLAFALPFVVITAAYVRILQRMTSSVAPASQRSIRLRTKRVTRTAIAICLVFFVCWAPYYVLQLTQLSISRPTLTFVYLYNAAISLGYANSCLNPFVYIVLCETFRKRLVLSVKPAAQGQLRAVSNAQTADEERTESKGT
Description: The full-length cDNA for human MCHR1 was cloned from a human adult brain cDNA library (Edge Biosystems, Cat. 38356) by standard polymerase chain reaction (PCR) methodology employing the following primers: sense, 5′-GCCACCATGGACCT GGAAGCCTCGCTGC-3′; anti-sense, 5′-[…]-3′. The PCR reaction was performed in a final volume of 50 μl containing 5 μl of a 10× stock solution of PCR buffer, 1 μl of 10 mM dNTP mixture (200 μM final), 2 μl of 50 mM Mg(SO4) (2 mM final), 0.5 μl of 20 μM solutions of each primer (0.2 μM final), 5 μl of template cDNA containing 0.5 ng DNA, 0.5 μl of Platinum Taq High Fidelity DNA polymerase (Gibco Life Technologies) and […] of H2O. PCR amplification was performed on a Perkin Elmer 9600 thermocycler. After denaturation for 90 sec at 94° C., the amplification sequence consisting of 94° C. for 25 sec, 55° C. for 25 sec and 72° C. for 2 min was repeated 30 times, followed by a final elongation step at 72° C. for 10 min. The desired PCR product (1.1 Kb) was confirmed by agarose gel electrophoresis and the band was extracted from the gel by Geneclean (Bio101) following the manufacturer's instructions. Following extraction, the cDNA fragment was cloned into pCR2.1-TOPO plasmid (Invitrogen Corp) to confirm the identity and sequence.
In order to generate cell lines stably expressing MCHR1, the insert was then subcloned into the Xba I and Not I sites of pcDNA(+)-3.1-neomycin (Invitrogen). After purification by Qiagen Maxi-prep kit (QIAGEN, Inc.), the plasmid was transfected by Fugene 6 (Roche Applied Science) into AV12 cells that had been previously transfected with the promiscuous G protein Gα15. The transfected cells were selected by G418 (800 μg/ml) for 10-14 days and single colonies were isolated from culture plates. The G418-resistant colonies were further selected for MCHR1 expression by measuring MCH-stimulated Ca^2+ transients with a fluorometric imaging plate reader (FLIPR, Molecular Devices).
Both the ^125I-MCH binding and functional GTPγ^35S binding assays employed membranes isolated from a clone designated as clone 43. Typically, cells from 20 confluent T225 flasks were processed by washing the monolayers in cold phosphate-buffered saline (PBS), scraping the cells into same and re-suspending the cell pellet in 35 ml of 250 mM Sucrose, 50 mM HEPES, pH 7.5, 1 mM MgCl2, 24 μg/ml DNase I, and protease inhibitors (1 Complete® tablet, per 50 ml of buffer prepared, Roche Diagnostics). […]
Binding of compounds to MCHR1 was assessed in a competitive binding assay employing ^125I-MCH, compound and clone 43 membranes. […] Non-specific binding is assessed in the presence of 0.1 μM unlabeled MCH. Bound ^125I-MCH is determined by placing sealed plates in a Microbeta Trilux (Perkin Elmer Life and Analytical Sciences Inc) and counting after a 12 hr delay. […]

[2] = test system: diet-induced obese male Long-Evans rats; test: 3 day body weight change in diet-induced obese rats after oral dosing; assay type: in vivo, rat; conditions: 10 mg/kg oral once a day for 3 days, 3 day cumulative, relative to vehicle control
Description: Vehicle consisted of 1% CMC and 0.25% PS-80 in water.
Animals were individually housed in a temperature regulated room (24° C.) with a reverse 12 hour light/dark cycle (dark 10:00/22:00). Water and food (Teklad 95217, Harlan, Wis.) were available ad libitum. Compounds were dosed orally once a day before onset of dark for 3 days. Daily food intake and body weight change were measured for the 3 day period.

Row | Ki ([1]; read-out: Average MCHR1 Ki) | Compound | Body weight reduction @ 10 mg/Kg versus vehicle control. Data expressed in grams. [2] | Ki ([1]; Average MCHR1 Ki (nM))
1 | 8.79 nM | CN1CCC(CN(C)c2nc3cc(NC(=O)c4ccc(-c5ccc(F)cc5)cc4)ccc3o2)C1 (single isomer, unassigned) [Example 34, 4′-Fluoro-biphenyl-4-carboxylic acid {2-[methyl-(1-methyl-pyrrolidin-3-ylmethyl)-amino]-benzooxazol-5-yl}-amide] | 5.8 grams | –
2 | 16.7 nM | CN1CCC(N(C)c2nc3ccc(NC(=O)c4ccc(-c5ccc(F)cc5)cc4)cc3s2)C1 (single isomer, unassigned) [Example 106, 4′-Fluoro-biphenyl-4-carboxylic Acid {2-[methyl-(1-methyl-pyrrolidin-3-yl)-amino]-benzothiazol-6-yl}-amide] | 8.4 grams | –
3 | 15.3 nM | CN1CCC(N(C)c2nc3ccc(NC(=O)c4ccc(-c5ccc(F)cc5)cc4)cc3s2)C1 (single isomer, unassigned) [Example 107, 4′-Fluoro-biphenyl-4-carboxylic Acid {2-[methyl-(1-methyl-pyrrolidin-3-yl)-amino]-benzothiazol-6-yl}-amide] | 7.1 grams | –
4 | – | CN1CCC(N(C)c2nc3cc(NC(=O)c4ccc(-c5ccc(F)cc5Cl)cc4)ccc3o2)CC1.Cl [Example 157, 2′-Chloro-4′-fluoro-biphenyl-4-carboxylic acid {2-[methyl-(1-methyl-piperidinyl)-amino]-benzooxazol-5-yl}-amide Hydrochloride] | 18 grams | 7.5 nM
